{
  "source": "patent US20130331326A1",
  "about": "“METHOD OF INDUCING HEMATOPOIETIC RECONSTRUCTION” (DUKE UNIVERSITY, priority 2011, published 2013)",
  "key": {"[1]": {"test_system": "AKT-S473", "experiment": "Phosphorylation of AKT-S473 in irradiated BM KSL cells", "assay_type": "cell-based, mouse", "conditions": "EGF treatment of irradiated BM KSL cells in culture, within 15 minutes, vs TSF alone", "method": "(§1) Cell apoptosis and necrosis were analyzed by flow cytometry according to manufacturer's protocols with Annexin V-FITC and 7-AAD staining (BD, San Jose, Calif.). […] Cells were fixed and permeabilized with Fix Buffer I and Perm Buffer III (BD), and then stained with mouse anti-phospho-AKT-S473 PE (BD) or isotype control. Cell cycle analysis was performed by flow cytometric analysis modified from previous reports (Jordan et al, Exp. Hematol. 24:1347-1355 (1996), Chute et al, Hum. Gene Ther. 11:2515-2528 (2000), Sungartz et al, Blood 119:1308-1309 (2012)). Briefly, cells were fixed and permeabilized with 0.25% Saponin (Calbiochem, La Jolla, Calif.), 2.5% paraformaldehyde, 2% FBS in 1×PBS, and then labeled with Ki67-FITC and 7-AAD (BD). BM lin^− cells from VavCre;EGFR^+/+ or VavCre;EGER^fl/fl were cultured with TSF or TSF+10 μM erlotinib, or TSF following 300 cGy for 72 hours, and then collected for total cell counts and CFCs analysis."}, "[2]": {"test_system": "BM KSL cells", "experiment": "Culture of 300 cGy-irradiated BM KSL cells with BM ECs or TSF cytokines; CFC and CFU-S12 recovery", "assay_type": "cell-based, mouse", "method": "BM cells were collected into PBS (Cellgro, Manassas, Va.) with 10% fetal bovine serum (Hyclone, Logan, Utah) and 1% penicillin/streptomycin (GIBCO, Grand Island, N.Y.). Viable BM cells were quantified using Trypan Blue Stain (Lonza, Basel, Switzerland) to exclude apoptotic and dead cells. Cells were then incubated with anti-c-kit, anti-Sca-1, anti-lineage cocktail, anti-CD41, anti-CD48, and anti-CD150 antibodies (Biolegend and eBiosciences, San Diego, Calif.; BD, San Jose, Calif.) to measure ckit^+sca-1^+lin^− (KSL) progenitor cells or CD150′CD41^−CD48^−KSL (SLAM/KSL) as previously described (Kiel et al, Cell 121:1109-1121 (2005)). Colony forming cells (CFCs) and CFU-S12 assays were also performed to measure functional hematopoietic stem/progenitor cell content. For CFCs, either whole BM or cultured lineage−cells, or KSL cells were plated onto methylcellulose (StemCell Technologies, Vancouver, BC, Canada), and colonies were scored on day 14. 1×10^5 BM or 2×10^5 cells were collected from donor mice and injected via tail vein into recipient C57B16 mice that had been given 950 cGy TBI. At day +12 post-injection, spleens from recipient mice were harvested and stained with Bouin's fixative solution (Ricca Chemical Company, Arlington, Tex.), and colonies were counted as previously described (Till and MeRadiat. Res. 14:213-222 (1961)). Complete blood counts were performed on a HemaVet 950 (Drew Scientific, Dallas, Tex.). […]"}, "[3]": {"test_system": "BM KSL cells", "experiment": "BrdU incorporation in BM KSL cells in vivo after 700 cGy TBI", "set-up": "species or system mouse", "conditions": "day +7 following 700 cGy TBI, EGF daily x 7 days, vs saline", "method": "Cell proliferation was measured in C57B16 mice exposed to 700 cGy TBI and administered 5-bromo-2-deoxyridine (BrdU, BD) in drinking water from the day of irradiation until day +7. BM cells were labeled with anti-cKit PE, anti-scal PE-Cy7, anti-lineage APC, and anti-BrdU FITC. Incorporation of BrdU was analyzed by flow cytometry according to the manufacturer's staining protocol (BD)."}, "[4]": {"test_system": "BM 34-KSL cells", "experiment": "Competitive transplantation of the progeny of cultured BM 34-KSL cells", "assay_type": "cell-based, mouse", "conditions": "progeny of 300 cGy-irradiated, EGF-treated BM 34-KSL cells; 8 weeks post-transplant"}, "[5]": {"test_system": "C57B16 mice", "experiment": "Survival of C57B16 mice after 700 cGy TBI", "assay_type": "in vivo, mouse", "conditions": "0.5 ug/G EGF daily x 7 days from +2 hours, saline controls 57%"}, "[6]": {"test_system": "BM KSL cells", "experiment": "Annexin V apoptosis assay of irradiated BM KSL cells in culture", "assay_type": "cell-based, mouse", "conditions": "72 hours, vs cytokines alone", "method": "as §1"}, "[7]": {"test_system": "CD45+MECA- BM cells", "experiment": "Annexin+ BM hematopoietic cells in mice after 700 cGy TBI", "assay_type": "in vivo, mouse", "conditions": "systemic EGF x 7 days, day +7, vs saline", "method": "FIGS. 7A-7G. […] (FIG. 7B) Mean percentage of Annexin^+ Tie2Cre;Bak1^−/−;Bax^Fl/−. […] Non-irradiated BM KSL cells reside predominantly in the G0 (white). G1 light gray, G2/S/M=dark gray. *P=0.002 vs TSF for G0 and ̂P=0.002 vs TSF for G2/S/M, respectively (means±SEM, n=3-5/group). […] The majority of non-irradiated cells were in G0 (white). […] The Mann-Whitney test was utilized for all comparisons unless otherwise noted.\nas §1"}, "[8]": {"test_system": "DNA-PK", "experiment": "Phosphorylation of DNA-PK in irradiated BM lin- cells", "assay_type": "cell-based, mouse", "conditions": "300 cGy BM lin- cells, EGF 20 ng/ml, vs cytokines alone", "method": "The phosphorylation of the T2647 domain of DNA-PK was measured using immunofluorescence and flow cytometric analysis. […] Cells were separated onto a glass slide, fixed with 4% paraformaldehyde and permeabilized with 0.3% Triton-X. Cells were stained with rabbit polyclonal DNA-PK or rabbit IgG (Abeam, Cambridge, Mass.) and donkey anti-rabbit Alexafluor 488 antibody and counterstained with Hoechst 33342 (Life Technologies, Grand Island, N.Y.)."}, "[9]": {"test_system": "BM KSL cells", "experiment": "Cell cycle analysis (Ki67/7-AAD) of irradiated BM KSL cells", "assay_type": "cell-based, mouse", "method": "as §1"}, "[10]": {"test_system": "MAPK", "experiment": "Phosphorylation of MAPK in irradiated BM KSL cells", "assay_type": "cell-based, mouse", "conditions": "EGF treatment of irradiated BM KSL cells in culture; data not shown", "from_the_text": "EGFR signaling can activate multiple signaling cascades, including the MAPK and PI3k/Akt signaling pathways (Sordella et al, Science 305:1163-1167 (2004), Yang et al, Nature 480:118-122 (2011), Hynes and Lane, Nat. Rev. Cancer 5:341-354 (2005), Wheeler et al, Nat. Rev. Clin. Oncol. 7:493-507 (2010)). […] A further examination was made of whether inhibition of Akt signaling could negate EGF-mediated induction of BM stem/progenitor cell cycling following irradiation."}, "[11]": {"conditions": "20 ng/mL EGF added to non-contact FL/+ EC cultures of 300 cGy-irradiated BM KSL cells, vs FL/+ ECs alone"}, "[12]": {"conditions": "EGF added to irradiated BM KSL cells cultured with cytokines (TSF), day 7, vs cytokines alone"}, "[13]": {"conditions": "300 cGy, cytokines + EGF, 72 hours of culture"}},
  "note": "“Also recorded” adds a separate entry of the source.",
  "data": [
    {"substance": "EGF: epidermal growth factor; recombinant EGF (R&D Systems)", "values": [
      {"measurement": "increase in Akt phosphorylation", "setting": "[1]", "result": 50, "unit": "%"},
      {"measurement": "increase in CFCs recovered at day 7", "setting": "[2]; [11]", "result": 2.2, "unit": "fold"},
      {"measurement": "increase in CFU-S12 recovered at day 7", "setting": "[2]; [11]", "result": 2.6, "unit": "fold"},
      {"measurement": "recovery of CFCs in culture", "setting": "[2]; 300 cGy BM KSL cells from Tie2Cre;Bak1-/-;BaxFl/- mice, TSF + 20 ng/ml EGF, 72 hours, vs cytokines alone", "result": "increased CFCs; also recorded: increase in recovery of CFCs"},
      {"measurement": "increase in CFCs", "setting": "[2]; [12]", "result": 3, "unit": "fold"},
      {"measurement": "increase in CFU-S12", "setting": "[2]; [12]", "result": 4, "unit": "fold"},
      {"measurement": "increase in BM CFC recovery", "setting": "[2]; EGF treatment, 72 hours following radiation exposure, vs TSF alone", "result": 3, "unit": "fold"},
      {"measurement": "regeneration of BM stem and progenitor cells (CFC, CFUS12)", "setting": "[2]; Example 1, 300 cGy KSL cells, 7 days with BaxFl+ endothelial cells with and without EGF", "result": "induced regeneration of BM stem and progenitor cells"},
      {"measurement": "BrdU incorporation in BM KSL cells", "setting": "[3]", "result": "significantly increased; also recorded: marked increase"},
      {"measurement": "donor hematopoietic cell repopulation, higher vs cytokine cultures alone", "setting": "[4]", "result": 3, "unit": "fold"},
      {"measurement": "mice alive and well through day +30", "setting": "[5]", "result": 93, "unit": "%"},
      {"measurement": "decreased Annexin+ KSL cells", "setting": "[6]; C57B16 BM KSL, 300 cGy, cytokines plus 20 ng/ml EGF", "result": 2, "unit": "fold"},
      {"measurement": "percentage of Annexin+ cells", "setting": "[6]; irradiated BM KSL cells from Tie2Cre;Bak1-/-;BaxFl/- mice, EGF", "result": "further decreased"},
      {"measurement": "decreased Annexin+ BM hematopoietic cells", "setting": "[7]", "result": 4, "unit": "fold"},
      {"measurement": "phospho-DNA-PK levels by immunofluorescence staining", "setting": "[8]; 15 minutes", "result": "increased phospho-DNA-PK; also recorded: significant increase"},
      {"measurement": "phospho-DNA-PK levels by FACS analysis", "setting": "[8]; 1 hour", "result": "increased phospho-DNA-PK; also recorded: significant increase"},
      {"measurement": "cycling of BM KSL cells from Tie2Cre;Bak1-/-;BaxFl/- mice", "setting": "[9]; 300 cGy in vitro, TSF + 20 ng/ml EGF, 72 hours, vs TSF", "result": "significantly decreased G0 cells and increased G2/S/M cells; also recorded: significantly increased the cycling"},
      {"measurement": "KSL cells in G1", "setting": "[9]; [13]", "result": 51, "unit": "%"},
      {"measurement": "KSL cells in G2/S/M phase", "setting": "[9]; [13]", "result": 31, "unit": "%"},
      {"measurement": "KSL cells remaining in G0", "setting": "[9]; [13]", "result": 17, "unit": "%"},
      {"measurement": "phosphorylation of MAPK", "setting": "[10]", "result": "did not alter the phosphorylation of MAPK"}
    ]}
  ]
}
